The values below come from EPA's ToxRefDB 2.

Data set [1] concerns rat. The conditions noted are these: Prenatal developmental toxicity study, wistar, Oral, Gavage/Intubation, dose end: 8 GD, group: maternal.
The test system of data set [2] is rat. The conditions noted are these: Multigenerational reproductive toxicity study, sprague dawley, Oral, Feed, dose end: 2 generation.
The subject of data set [3] is rat. The note with it: Combined chronic toxicity/carcinogenicity; fischer; Oral; Feed; dose end: 78 week; group: systemic; systemic / pathology microscopic / spleen / fibrosis.
Data set [4] relates to mouse. The note with it: Combined chronic toxicity/carcinogenicity, b6c3f1, Oral, Feed, dose end: 78 week, group: systemic.
Data set [5] relates to dog. The conditions noted are these: Subchronic oral toxicity in nonrodent, beagle, Feed, dose end: 90 day, group: systemic, systemic / in life observation / clinical signs / pulse/pressure + systemic / organ weight / liver / nos.
Data set [6] has as its system mouse. The note with it: Carcinogenicity, cd1, Oral, Feed, dose end: 105 week, group: systemic.
Data set [7] relates to dog. The note with it: Chronic toxicity; beagle; Oral; Feed; dose end: 52 week; group: systemic; systemic / clinical chemistry / alkaline phosphatase (alp/alk) / alkaline phosphatase (alp/alk) + systemic / clinical chemistry / ….
Data set [8] deals with rat. The note with it: Combined chronic toxicity/carcinogenicity, sprague dawley, Oral, Feed, dose end: 30 month, group: systemic.
For data set [9], the system named is rat. The note with it: Subchronic oral toxicity in rodents, sprague dawley, Gavage/Intubation, dose end: 90 day, group: systemic.
Data set [10] relates to rat. The note with it: Multigenerational reproductive toxicity study, sprague dawley, Oral, Gavage/Intubation, dose end: 1 generation.
Data set [11] concerns dog. The conditions noted are these: Subchronic oral toxicity in nonrodent, beagle, Capsule, dose end: 90 day, group: systemic, systemic / clinical chemistry / alanine aminotransferase (alt/sgpt) / alanine aminotransferase (alt/sgpt) + systemic / clinical chemistry / ….
The mark [12] stands for this setting: reproductive / reproductive performance / postimplantation loss / postimplantation loss + systemic / in life observation / body weight / ….
Where [13] appears, read: systemic / in life observation / food consumption / food consumption.
Setting [14] is: group: offspring, developmental / developmental landmark / vaginal opening / vaginal opening + systemic / in life observation / body weight / offspring (pup) ….
The mark [15] stands for this setting: group: parental, systemic / in life observation / body weight / body weight + systemic / in life observation / body weight / body weight gain.
The mark [16] stands for this setting: systemic / in life observation / body weight / body weight.
Where [17] appears, read: systemic / in life observation / body weight / body weight + systemic / pathology microscopic / spleen / hemangiosarcoma.
[18] abbreviates: systemic / in life observation / body weight / body weight + systemic / in life observation / body weight / body weight gain + systemic / ….
Where [19] appears, read: systemic / clinical chemistry / thyroxine (t4) / thyroxine (t4), total + systemic / organ weight / liver / absolute + systemic / organ ….
Where [20] appears, read: systemic / in life observation / body weight / body weight gain.
The mark [21] stands for this setting: systemic / in life observation / body weight / body weight gain + systemic / clinical chemistry / cholesterol / cholesterol + systemic / ….
Setting [22] is: group: offspring, systemic / organ weight / kidney / absolute + systemic / organ weight / liver / absolute.
[23] abbreviates: group: offspring, systemic / organ weight / kidney / absolute + systemic / organ weight / liver / absolute + systemic / in life observation / body weight / ….
Where [24] appears, read: group: parental, systemic / organ weight / kidney / absolute + systemic / organ weight / liver / absolute.
[25] abbreviates: group: parental, systemic / organ weight / kidney / absolute + systemic / organ weight / liver / absolute + systemic / in life observation / body weight / ….
The mark [26] stands for this setting: group: reproductive, reproductive / reproductive performance / reproductive performance other / NOS + reproductive / reproductive performance / fertility / ….

For `CC(C)(C)CC(C)(C)c1ccc(O)cc1` [4-(1,1,3,3-Tetramethylbutyl)phenol], in the data set with rat [1] (setting [12]), the LOAEL is more than 125 mg/kg/day and the NOAEL is not below 125 mg/kg/day. In the data set with rat [1] (setting [13]), this molecule yielded an LEL of 15.6 mg/kg/day and an NEL of less than 15.6 mg/kg/day. Further, in the data set on rat [2] (setting [14]), the LEL was 100 mg/kg/day, the LOAEL is more than 100 mg/kg/day, the NEL is 10 mg/kg/day and the NOAEL is not below 100 mg/kg/day. For the same molecule, in the data set on rat [2] (setting [15]), the LEL is 100 mg/kg/day, the LOAEL is more than 100 mg/kg/day, the NEL worked out at 10 mg/kg/day and the no observed adverse effect level (NOAEL) was not below 100 mg/kg/day.

Regarding `Nc1ccc(Cl)cc1` [4-Chloroaniline], in the data set on rat [3], the LEL was 12.5 mg/kg/day, the LOAEL came out at 12.5 mg/kg/day, the NEL was less than 12.5 mg/kg/day and the NOAEL is less than 12.5 mg/kg/day. Besides, in the data set with mouse [4] (setting [16]), the LOAEL was determined as 375 mg/kg/day and the NOAEL was less than 375 mg/kg/day. In the data set with mouse [4] (setting [17]), the LEL is 375 mg/kg/day and the NEL is less than 375 mg/kg/day.

Take `Clc1ccccc1-c1nnc(-c2ccccc2Cl)nn1` [Clofentezine]: the LEL in the data set with dog [5] was 80 mg/kg/day; in the data set with mouse [6] (systemic / pathology gross / liver / mass) it was 50.7 mg/kg/day; with dog [7], 25 mg/kg/day; with rat [8] (setting [19]), 17.3 mg/kg/day. The lowest-observed-adverse-effect level (LOAEL) with dog [5] was 80 mg/kg/day; in the data set on mouse [6] (setting [18]), more than 544 mg/kg/day; in the data set on dog [7], 25 mg/kg/day; with rat [8] (setting [19]), 17.3 mg/kg/day. In addition, the NEL in the data set on dog [5] is less than 80 mg/kg/day; in the data set with mouse [6] (setting [18]), 5 mg/kg/day; with dog [7], 1.25 mg/kg/day; in the data set with rat [8] (systemic / pathology microscopic / liver / hypertrophy + systemic / pathology microscopic / liver / vacuolization), 1.72 mg/kg/day. Moreover, the NOAEL was less than 80 mg/kg/day in the data set on dog [5], not below 544 mg/kg/day with mouse [6] (setting [18]), 1.25 mg/kg/day in the data set with dog [7] and 1.72 mg/kg/day in the data set with rat [8] (setting [19]).

As to `CCOc1ccc2c(c1)C(C)=CC(C)(C)N2` [Ethoxyquin], the LEL was determined as 40 mg/kg/day in the data set with rat [9] (setting [20]); 75 mg/kg/day in the data set on rat [10] (setting [22]); 75 mg/kg/day in the data set with rat [10] (setting [24]); 300 mg/kg/day in the data set on rat [10] (setting [26]); 4 mg/kg/day in the data set on dog [11]. Moreover, the LOAEL with rat [9] (setting [20]) was 40 mg/kg/day; in the data set with rat [10] (setting [23]), more than 300 mg/kg/day; in the data set with rat [10] (setting [25]), more than 300 mg/kg/day; with rat [10] (setting [26]), more than 300 mg/kg/day; with dog [11], 4 mg/kg/day. For the same molecule, the NEL is 20 mg/kg/day with rat [9] (setting [21]); less than 75 mg/kg/day in the data set with rat [10] (setting [22]); less than 75 mg/kg/day in the data set with rat [10] (setting [24]); 150 mg/kg/day in the data set on rat [10] (setting [26]); 2 mg/kg/day in the data set on dog [11]. The NOAEL was 20 mg/kg/day with rat [9] (setting [21]); not below 300 mg/kg/day in the data set on rat [10] (setting [23]); not below 300 mg/kg/day in the data set on rat [10] (setting [25]); not below 300 mg/kg/day with rat [10] (setting [26]); 2 mg/kg/day with dog [11].

Broadly, the LOAEL is the lowest dose or exposure tested at which an adverse effect was seen. As a reminder, the NOAEL is the highest dose or exposure tested at which no adverse effect was seen.
